Measured values published in patent US8658801B2, “Pesticides containing a bicyclic bisamide structure” (Syngenta Crop Protection, LLC, priority 2006, dated 2014).

Columns and labels:
[1] = test system: Plutella xylostella (Diamond Back Moth); assay: Example B3: Plutella xylostella, larvicide, feeding/residual contact, preventive (artificial diet MTP); format: in vivo; conditions: 120 h, 5 days incubation, L2 larvae
Method in brief: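 Artificial diet in multiwell plates treated with test solution, dried, then infested with 10–15 L2 larvae per well. After 5 days, larval mortality, antifeedant effect and growth regulation were scored.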

[2] = test system: Myzus persicae (Green Peach Aphid); assay: Example B6: activity against Myzus persicae, mixed population, systemic/feeding, curative (pea seedling roots); conditions: 144 h, read-out: activity
[3] = test system: Aphis craccivora (Pea Aphid); assay: Example B11: activity against Aphis craccivora, mixed population, systemic/feeding; format: in vivo; conditions: 144 h, 6 days, roots in test solution (systemic)
Source text: (§1) Activity Against Aphis craccivora (Pea Aphid)
(§2) (Mixed Population, Systemic/Feeding)
(§3) 6 days later, samples are checked for mortality.

[4] = test system: Thrips tabaci (Onion Thrips); assay: Example B7: activity against Thrips tabaci, mixed population, feeding/residual contact, preventive; conditions: 144 h, read-out: activity
[5] = test system: Heliothis virescens (Tobacco Budworm); assay: Example B2: activity against Heliothis virescens, ovo-larvicide, feeding/contact, curative; format: in vivo; conditions: 96 h, 4 days incubation, eggs 0-24 h old
Protocol: Activity Against Heliothis virescens (Tobacco Budworm)
(Ovo-Larvicide, Feeding/Contact Activity, Curative)
Eggs (0-24 h old) are placed in 24-well microtiter plate on artificial diet and treated with test solutions by pipetting. After an incubation period of 4 days, samples are checked for egg mortality, larval mortality, and growth regulation.

[6] = test system: Myzus persicae (Green Peach Aphid); assay: Example B5: activity against Myzus persicae, mixed population, feeding/residual contact, preventive (sunflower leaf discs); conditions: foliar, 144 h, read-out: activity
[7] = test system: Aphis craccivora (Pea Aphid); assay: Example B10: activity against Aphis craccivora, mixed population, contact/feeding; format: in vivo; conditions: 144 h, 6 days after treatment, spray (contact/feeding)
Source text: as §1
(Mixed Population, Contact/Feeding)
6 days after treatment, samples are checked for mortality.

[8] = test system: Cydia pomonella (Codling Moth); assay: Example B8: activity against Cydia pomonella (paraffin-coated diet cubes); format: in vivo; conditions: 336 h, 14 days incubation at 26° C.
Protocol: Activity Against Cydia pomonella (Codling Moth)
Standard Cydia diet cubes (1.5 cm width) are pierced with a tooth-pick and are immersed in liquid paraffin (ca. 80° C.). After the paraffin coat has hardened, an aqueous emulsion containing 400 ppm of active ingredient is applied using a De Vilbis sprayer (25 ml, 1 bar). After the spray coating has dried, the cubes are put into plastic containers which are then populated with two freshly hatched Cydia pomonella (1st instar). The containers are then closed with a plastic cap. After 14 days incubation at 26° C. and 40-60% relative humidity, the survival rate of the caterpillars as well as their growth regulation is determined. In this test, compounds listed in Table P above show good activity. In particular compounds P.10, P.11, P.12, P.18, P.19, P.20, P.29, P.30, P.31, P.32, P.33, P.34, P.35, P.37, P.38, P.39, P.42, and P.43 show an activity of over 80% at a concentration of 400 ppm.

[9] = test system: Spodoptera littoralis (Egyptian Cotton Leafworm); assay: Example B1: activity against Spodoptera littoralis, larvicide, feeding/residual contact, preventive (cotton leaf discs); format: in vivo; conditions: foliar, 72 h, 3 days after treatment, L1 larvae
[10] = test system: Diabrotica balteata (Corn Root Worm); assay: Example B4: Diabrotica balteata, larvicide, feeding/residual contact, preventive; format: in vivo; conditions: 120 h, 5 days incubation, L2 larvae
Method in brief: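 Artificial diet treated with test solution, dried, then infested with 6-10 L2 larvae per well. Larval mortality, antifeedant effect and growth regulation checked after 5 days of incubation.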

[11] = test system: Frankliniella occidentalis (Western Flower Thrips); assay: Example B9: activity against Frankliniella occidentalis (bean leaf discs or bean plants); format: in vivo; conditions: foliar, 6 days (leaf discs) or 14 days (plants) after infestation
Method in brief: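 Bean leaf discs on agar or whole bean plants sprayed with diluted test solutions, then infested with a mixed thrips population after drying. Population reduction versus untreated assessed 6 days (discs) or 14 days (plants) after infestation.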

[12] = test system: Aphis aossypii (Cotton Aphid); assay: Example B13: activity against cotton aphid, mixed population, systemic/feeding; format: in vivo; conditions: 144 h, 6 days, roots in test solution (systemic)
Source text: Activity Against Aphis aossypii (Cotton Aphid)
as §2, §3

Measured: pest or weed control at 400 ppm

CC(C)NC(=O)c1c(NC(=O)c2cc(C(F)(F)F)nn2-c2ncccc2Cl)c(Cl)cc2cn[nH]c12 [P.10]
not listed: [12]
> 80%: all other assays above

COc1cc(C(=O)Nc2c(C)cc3cn[nH]c3c2C(=O)NC(C)C)n(-c2ncccc2Cl)n1 [P.27, 6-{[2-(3-chloro-pyridin-2-yl)-5-methoxy-2H-pyrazole-3-carbonyl]-amino}-5-methyl-1H-indazole-7-carboxylic acid isopropylamide]
not listed: [8]
> 80%: all other assays above

COc1cc(C(=O)Nc2c(C)cc3cn[nH]c3c2C(=O)NC2(C3CC3)CC2)n(-c2ncccc2Cl)n1 [P.28, 6-{[2-(3-chloro-pyridin-2-yl)-5-methoxy-2H-pyrazole-3-carbonyl]-amino}-5-methyl-1H-indazole-7-carboxylic acid bicyclopropyl-1-ylamide]
not listed: [8]
> 80%: all other assays above

CCNC(=O)c1c(NC(=O)c2cc(C(F)(F)F)nn2-c2ncccc2Cl)c(Cl)cc2cn[nH]c12 [P.30]
not listed: [4]
> 80%: all other assays above

CC(C)NC(=O)c1c(NC(=O)c2cc(C(F)F)nn2-c2ncccc2Cl)c(Cl)cc2cn[nH]c12 [P.39]
not listed: [7]
> 80%: all other assays above

COc1cc(C(=O)Nc2c(Cl)cc3cn[nH]c3c2C(=O)NC(C)C)n(-c2ncccc2Cl)n1 [P.40]
not listed: [8] | [10]
> 80%: all other assays above

CC(C)NC(=O)c1c(NC(=O)c2cc(Br)nn2-c2ncccc2Cl)c(Cl)cc2cn[nH]c12 [P.42]
> 80%: all assays above

Cc1cc2cn[nH]c2c(C(=O)NC(C)C)c1NC(=O)c1cc(C(F)(F)F)nn1-c1ncccc1Cl [P.44]
not listed: [8]
> 80%: all other assays above

O=C(NC1(C2CC2)CC1)c1c(NC(=O)c2cc(Br)nn2-c2ncccc2Cl)c(Cl)cc2cn[nH]c12 [P.46]
not listed: [8] | [12]
> 80%: all other assays above

COc1cc(C(=O)Nc2c(Cl)cc3cn[nH]c3c2C(=O)NC2(C3CC3)CC2)n(-c2ncccc2Cl)n1 [P.47]
not listed: [8]
> 80%: all other assays above

Cc1cc2cn[nH]c2c(C(=O)NC2(C3CC3)CC2)c1NC(=O)c1cc(C(F)(F)F)nn1-c1ncccc1Cl [P.49]
not listed: [8] | [12]
> 80%: all other assays above
